Measured values published in PubChem BioAssay (NCI).
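A five-concentration, 48-hour dose response in 96-well plates underlies each endpoint, interpolated linearly between surrounding concentrations. GI50 = concentration required for 50% inhibition of growth. TGI: concentration producing complete growth inhibition.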

Columns and labels:
Assay in all cases: NCI anticancer screen, dose series, 48 h
HL-60(TB) leukemia = test system: HL-60(TB) leukemia
RXF 393 renal = test system: RXF 393 renal
LOX IMVI melanoma = test system: LOX IMVI melanoma
HOP-62 NSCLC = test system: HOP-62 NSCLC
SK-MEL-2 melanoma = test system: SK-MEL-2 melanoma
UACC-62 melanoma = test system: UACC-62 melanoma
SW-620 colon = test system: SW-620 colon
SF-295 CNS = test system: SF-295 CNS
HCT-116 colon = test system: HCT-116 colon
NCI/ADR-RES ovarian = test system: NCI/ADR-RES ovarian

SMILES	TGI (HL-60(TB) leukemia)	TGI (RXF 393 renal)	TGI (LOX IMVI melanoma)	TGI (HOP-62 NSCLC)	TGI (SK-MEL-2 melanoma)	TGI (UACC-62 melanoma)	TGI (SW-620 colon)	TGI (SF-295 CNS)	GI50 (LOX IMVI melanoma)	GI50 (HOP-62 NSCLC)	GI50 (SK-MEL-2 melanoma)	GI50 (HCT-116 colon)	TGI (HCT-116 colon)	GI50 (UACC-62 melanoma)	GI50 (NCI/ADR-RES ovarian)	TGI (NCI/ADR-RES ovarian)	GI50 (SW-620 colon)	GI50 (SF-295 CNS)	GI50 (HL-60(TB) leukemia)	GI50 (RXF 393 renal)
O=S1c2ccccc2N=C(c2cccs2)CC1c1ccccc1O (stereo unspecified)	> 100 µM	> 100 µM	> 100 µM	> 100 µM	> 100 µM	> 100 µM	> 100 µM	> 100 µM	–	–	–	–	–	–	–	–	–	–	–	–
O=C(O)[C@@H](Cc1ccccc1)NS(=O)(=O)c1ccc(-c2ccccc2)cc1	–	–	> 100 µM	> 100 µM	> 100 µM	> 100 µM	> 100 µM	> 100 µM	> 100 µM	> 100 µM	> 100 µM	> 100 µM	> 100 µM	> 100 µM	> 100 µM	> 100 µM	> 100 µM	> 100 µM	–	–
CCn1c(C)nc([N+](=O)[O-])c1Sc1ncc[nH]1	–	–	42.2 µM	> 100 µM	> 100 µM	> 100 µM	> 100 µM	> 100 µM	–	–	–	–	> 100 µM	–	–	–	–	–	–	–
O=S1(=O)CC#CC[C@@H](CO)[C@@H](CO)CC#CC1	> 100 µM	> 100 µM	> 100 µM	> 100 µM	> 100 µM	> 100 µM	> 100 µM	> 100 µM	–	–	–	–	> 100 µM	–	–	–	–	–	–	–
O=S(=O)(O)c1ccc([Se][Se]c2ccc(S(=O)(=O)O)cc2)cc1	> 100 µM	> 100 µM	> 100 µM	> 100 µM	> 100 µM	> 100 µM	> 100 µM	> 100 µM	–	–	–	–	> 100 µM	–	–	–	–	–	–	–
COc1ccc(N2CCN(c3nc(-c4ccccn4)nc4sc5c(c34)CCCCCC5)CC2)cc1	34 µM	> 100 µM	> 100 µM	> 100 µM	> 100 µM	> 100 µM	> 100 µM	–	6.24 µM	11.4 µM	18.3 µM	3.22 µM	> 100 µM	6.86 µM	4.77 µM	> 100 µM	5.08 µM	–	4.05 µM	> 100 µM
c1ccc2cc(Cn3c(-c4cccc5ccccc45)[n+](Cc4ccc5ccccc5c4)c4c5ccccc5c5ccccc5c43)ccc2c1	0.585 µM	–	–	2.45 µM	–	1.35 µM	–	1.05 µM	–	0.387 µM	–	0.176 µM	1.5 µM	0.302 µM	1.77 µM	4.71 µM	–	0.203 µM	0.142 µM	–
Cc1cc(NCCCCCCCCNc2cc(C)nc3cc(N(C)C)ccc23)c2ccc(N(C)C)cc2n1	6.11 µM	28.7 µM	8.99 µM	29 µM	–	–	87.6 µM	30.2 µM	–	–	–	–	14 µM	–	–	–	–	–	–	–
COc1ccc(NC(=O)CC2SC(=Nc3ccc(Cl)cc3C)NC2=O)c([N+](=O)[O-])c1 (stereo unspecified)	> 100 µM	> 100 µM	> 100 µM	–	> 100 µM	> 100 µM	> 100 µM	> 100 µM	–	–	–	–	> 100 µM	–	–	–	–	–	–	–
C=C1[C@H](O)C[C@@H](C(C)C(O)CC=C(C)C)[C@@H](O)[C@@H]2C(C)=CC[C@@H]12 (stereo partly specified)	> 100 µM	–	> 100 µM	> 100 µM	> 100 µM	> 100 µM	> 100 µM	> 100 µM	> 100 µM	> 100 µM	> 100 µM	> 100 µM	> 100 µM	94.8 µM	> 100 µM	> 100 µM	> 100 µM	> 100 µM	> 100 µM	–
OCC1OC(N2CCN(C3OC(CO)C(O)C(O)C3O)CC2)C(O)C(O)C1O (stereo unspecified)	–	> 100 µM	> 100 µM	> 100 µM	> 100 µM	> 100 µM	> 100 µM	> 100 µM	–	–	–	–	> 100 µM	–	–	> 100 µM	–	–	–	–
Oc1ccccc1-c1cnnc(-c2ccccc2O)c1	44.1 µM	56.5 µM	41 µM	–	43.6 µM	34 µM	> 100 µM	–	–	–	–	–	44.2 µM	–	–	–	–	–	–	–
O=C(NNC(=O)/C(=C/c1cccc([N+](=O)[O-])c1)NC(=O)c1ccccc1)Nc1ccc(Cl)cc1	30.3 µM	25.6 µM	30.2 µM	29.6 µM	25.5 µM	30.3 µM	28.5 µM	34.3 µM	–	–	–	–	26.2 µM	–	–	–	–	–	–	–
CCCCCCCC(=O)[O-].N.N.N.N.N.[Co+3].[O-][Cl+3]([O-])([O-])[O-]	> 100 µM	–	> 100 µM	> 100 µM	> 100 µM	> 100 µM	> 100 µM	> 100 µM	> 100 µM	> 100 µM	> 100 µM	> 100 µM	> 100 µM	> 100 µM	–	–	> 100 µM	> 100 µM	> 100 µM	–
C/C(COc1ccccc1)=N\NC(N)=S	> 100 µM	> 100 µM	> 100 µM	> 100 µM	> 100 µM	> 100 µM	> 100 µM	> 100 µM	–	–	–	–	> 100 µM	–	–	–	–	–	–	–
CCN(CC(O)COc1ccc2c(c1)[n+]([O-])nc(N)[n+]2[O-])C(C)=O (stereo unspecified)	> 100 µM	–	> 100 µM	> 100 µM	> 100 µM	> 100 µM	> 100 µM	> 100 µM	–	–	–	–	> 100 µM	–	–	> 100 µM	–	–	–	–
O=C(C#Cc1ccccc1)N1CCCCC1	> 100 µM	–	> 100 µM	> 100 µM	> 100 µM	> 100 µM	> 100 µM	> 100 µM	–	–	–	–	67.5 µM	–	–	–	–	–	–	–
O=C1/C(=C/c2ccc(C(=O)O)cc2)CNC/C1=C\c1ccc(C(=O)O)cc1	> 100 µM	> 100 µM	–	> 100 µM	–	> 100 µM	–	> 100 µM	–	–	–	–	> 100 µM	–	–	–	–	–	–	–
O=Cc1cc2sc(C=O)cc2s1	> 100 µM	> 100 µM	> 100 µM	> 100 µM	–	> 100 µM	> 100 µM	> 100 µM	–	–	–	–	> 100 µM	–	–	–	–	–	–	–
CCCCCCCCCCCCCC(=O)OCC1OC(=O)C(O)C1O (stereo unspecified)	> 100 µM	–	> 100 µM	> 100 µM	–	> 100 µM	> 100 µM	> 100 µM	–	–	–	–	> 100 µM	–	–	–	–	–	–	–
O=C(Nc1c(Cl)cccc1Cl)Oc1cccc2cccnc12	20.6 µM	> 100 µM	–	21 µM	–	10 µM	> 100 µM	69 µM	–	5.63 µM	–	3.69 µM	> 100 µM	3.04 µM	2.73 µM	27.9 µM	4.23 µM	6.68 µM	3.75 µM	16.7 µM
